“Also recorded” adds a separate entry of the source.
Columns and labels:
HeLa cells = conditions: supra-physiologic doses; cited from earlier work
human CMG helicase [1] = tested on: T1, human CMG helicase; assay: fluorescent-polarization (FP) assay measuring ADP production; format: biochemical; conditions: for CMG activity inhibited: 1 mM, fluorescence-polarization assay; for inhibition of CMG helicase in fluorescent-polarization assay: FIG. 3
T1 construct: made in house; host or cells: insect cells (Sf9), baculoviruses
Text: (§1) We have focused on the enzymatic ATP hydrolysis steps used by the core MCM hexamers of the CMG helicase to identify ATP competitive inhibitors of […] and/or hydrolysis within one or more of the MCM hexamer pairs. To do this, we established a means to express and purify the human CMG helicase in our lab, and then we verified the isolated CMG is active in DNA unwinding assays. We then set up a novel assay to quantitatively measure ATP hydrolysis (ADP production) by the human CMG. This assay used reagents that are sensitive enough to read small changes in ADP production from our functioning CMG helicase in an in vitro biochemical enzyme assay. This assay relies on reading fluorescent-polarization (FP) changes from an antibody that binds to an ADP-fluorophore molecule that is displaced when the CMG produces ADP on its own. The results are obtained using a Perkin-Elmer Envision II FP plate reader. This approach is referred to as our primary screening assay. Our secondary screening assay, which is lower through-put, uses a traditional radioactive-based DNA fork unwinding method of analysis to verify whether a given potential CMGi is truly capable of inhibiting CMG elongation along DNA and subsequent fork unwinding.
The components for the assay used for ATP hydrolysis measurements of the hCMG are produced by BellBrook Labs, and the kit is called the ADP2 Transcreener™ FP Assay. […] As shown in FIGS. 10A-10B, the hCMG is incubated with ATP, buffer, and non-radioactive fork substrates for a determined length of time to allow hCMG activity to occur (or not, if an inhibitor is present). This produces ADP, which is recognized by the FP assay when free ADP competes an ADP-fluor off of a patented antibody that binds ADP with high affinity. […] But this polarity is reduced in a quantitative manner depending on the presence of free ADP (produced by the hCMG here), once the ADP-fluor is released from the antibody. Noteworthy, the fluor (Alexa 633) used here is in the far-red spectrum, which reduces problems during screening that can (likely) occur when chemicals themselves emit red or green wavelengths that interfere with plate reader steps (can give false positives). The system is very sensitive to even small changes in ADP production, being able to sense 0.5-2% changes quite easily (verified in our hands, using ADP-ATP standard curves). Low substrate conversion to ADP can be detected with a Z′-factor≥0.7 at 2.5% ATP conversion. The latter is achieved with a read time of less than 5 minutes. Signal stability is greater than 24 hr, and ADP-FP reagents are stable at RT for 8 hrs and tolerate 1% DMSO. Light output is also stable in the presence of up to 10% DMSO, DMF, ethanol, acetonitrile, or methanol solvents. ATP starting concentrations can be within the range of 0.1-1000 μM, and our hCMG enzyme requires 500 μM ATP for functioning near its published Km, which has been verified applies to the hCMG preparations (not shown).
Since hCMG is purified, feasibility testing of the FP assay was performed with the hCMG (FIGS. 10A-10B). Cubes, filters, and mirrors for dual-FP analysis were obtained using PE Envision II equipment, and such items were verified as functional. A window for change in millipolarizations (AmP window) is established with reagents alone, and the amount of patented antibody needed to achieve an optimal window is pre-determined in pilot titration assays using ATP at the required 500 μM level. […] Using formulas BellBrook Labs supplies for their reagents, it was also calculated that the assay was working with a Z′-factor of >0.6 (calculations not shown). Optimal ΔmP can be as high as 80% change (EC80). Achieving this will also increase our Z′-factor to 0.8-0.9.

human CMG (hCMG) = tested on: T2, human CMG (hCMG); assay: human CMG biochemical assays (primary and secondary), format not specified; conditions: for inhibition of the human CMG in biochemical assays (primary and secondary): in vitro
T2 construct: made in house; host or cells: insect cells (Sf9), baculoviruses
Text: as §1

human CMG helicase [2] = tested on: T1, human CMG helicase; assay: radioactive DNA fork unwinding helicase assay; format: biochemical; conditions: for inhibition of CMG activity in fork unwinding assay: 0.5 mM, 30 minutes at 37 degrees Celsius, compared to Novobiocin; for inhibition of human CMG helicase in fork unwinding assay: in vitro, FIG. 2
Text: as §1
The human CMG helicase assay was performed with purified CMG before glycerol gradient centrifugation. Novobiocin (Compound A), Clorobiocin (Compound D), and Coumermycin A1 (Compound B) were incubated with 2 μL human CMG and 1 μL ^32P-labeled DNA forks for 30 minutes at 37 degrees Celsius. The reactions were stopped with 6× loading buffer, separated in 10% PAGE, and dried on filter paper followed by autoradiography.
(§2) For feasibility of this example, it is shown that sufficient quantities of enzymatically active hCMG can be purified using an established approach (FIGS. 9A-9D). This method of hCMG purification was previously devised by the Hurwitz lab and involves the co-expression of all 11 subunits of the hCMG using baculoviruses and insect cells, followed by a five-step chromatography-based enrichment scheme. The steps of the purification are outlined in FIG. 9A, with Westerns on isolated fractions used to assess the completeness of hCMG subunits and enzyme recovered after the final glycerol gradient step (FIG. 9B). […] Activity is measured using a classical fork-unwinding helicase assay that relies on radioactive forks being separated, and ssDNA being recognized and quantifiable in gels using PhosphorImager analyses (FIG. 9D). SV40-derived Tag helicase was also purified as a positive control, and our active hCMG is close in forkunwinding output to that of TAg. […] Given that multiple fractions produce active hCMG, this provides ample quantities of hCMG to design, calibrate, and test a workflow for hCMG chemical screening. […]

HPV16 E1 helicase [3] = assay: HPV16 E1 helicase inhibition; format: biochemical; conditions: for inhibition of E1 helicase from HPV16: FIG. 12, construct not stated
HPV16 E1 helicase [4] = molecular target: HPV16 E1 helicase (Human papillomavirus type 16, UniProt P03114); assay: HPV16 E1 helicase inhibition; format: biochemical; conditions: full-length
[5] = molecular target: T3, Simian virus 40 (SV40) large-T-antigen (Tag) DNA helicase (Simian virus 40, UniProt P03070); assay: classic fork unwinding assay; format: biochemical; conditions: in vitro, FIG. 2 and titration FIG. 11
T3 construct: made in house
Text: as §2, with “TAg. Each prep of hCMG thus obtained is giving us -5-10 fmol of hCMG per uL of glycerol gradient fraction, with fractions totaling 150-170 uL (3-4 fractions obtained with obvious hCMG; FIG. 9B). Only 1 uL hCMG is required to easily see activity using this method (FIG. 9D).” for “TAg.”

[6] = molecular target: HPV18 E1 helicase (helicase domain only) (Human papillomavirus type 18, UniProt P06789); assay: HPV18 E1 helicase inhibition; format: biochemical
OS tumor = OS tumor growth in mice; format: in vivo
OS tumor cells = assay: inhibition of osteosarcoma tumor cells; format: cell-based; conditions: FIGS. 14A-14F
[7] = tested on: RPA loading onto DNA/chromatin in A549 NSCLC cells; assay: RPA32 western blot of total cell extracts and chromatin-bound fractions; format: cell-based; conditions: A549 NSCLC cells, 0.1, 10, or 25 μM, 48 hours
Text: Cells were harvested and protein from each group isolated into total cell extracts (TCE) or chromatin-bound fractions. Standard SDS-PAGE followed by western blot was used to separate proteins and probe for RPA32 presence in TCE and bound chromatin. Actin serves as a loading control. […] There is also some toxicity of Coumermycin A1 (Compound B).

[8] = tested on: MCM assembly and activity; assay: MCM assembly and activity in cells; format: cell-based; conditions: Hacat cells and OS tumor cells (143b)
[9] = molecular target: HPV31 E1 helicase (full-length) (Human papillomavirus 31, UniProt P17382); assay: HPV31 E1 helicase inhibition; format: biochemical
[10] = tested on: DNA damage / Parp cleavage in tumor cells; assay: DNA damage and Parp cleavage in cells; format: cell-based; conditions: tumor cells versus Hacat
multiple tumor types = assay: sensitivity of multiple tumor types; format: cell-based; conditions: low doses, FIG. 17
[11] = tested on: Hacat non-tumor skin cells; assay: sensitivity of non-tumor Hacat cells; format: cell-based; conditions: FIGS. 17 and 19

T3 sequence (P03070 whole entry): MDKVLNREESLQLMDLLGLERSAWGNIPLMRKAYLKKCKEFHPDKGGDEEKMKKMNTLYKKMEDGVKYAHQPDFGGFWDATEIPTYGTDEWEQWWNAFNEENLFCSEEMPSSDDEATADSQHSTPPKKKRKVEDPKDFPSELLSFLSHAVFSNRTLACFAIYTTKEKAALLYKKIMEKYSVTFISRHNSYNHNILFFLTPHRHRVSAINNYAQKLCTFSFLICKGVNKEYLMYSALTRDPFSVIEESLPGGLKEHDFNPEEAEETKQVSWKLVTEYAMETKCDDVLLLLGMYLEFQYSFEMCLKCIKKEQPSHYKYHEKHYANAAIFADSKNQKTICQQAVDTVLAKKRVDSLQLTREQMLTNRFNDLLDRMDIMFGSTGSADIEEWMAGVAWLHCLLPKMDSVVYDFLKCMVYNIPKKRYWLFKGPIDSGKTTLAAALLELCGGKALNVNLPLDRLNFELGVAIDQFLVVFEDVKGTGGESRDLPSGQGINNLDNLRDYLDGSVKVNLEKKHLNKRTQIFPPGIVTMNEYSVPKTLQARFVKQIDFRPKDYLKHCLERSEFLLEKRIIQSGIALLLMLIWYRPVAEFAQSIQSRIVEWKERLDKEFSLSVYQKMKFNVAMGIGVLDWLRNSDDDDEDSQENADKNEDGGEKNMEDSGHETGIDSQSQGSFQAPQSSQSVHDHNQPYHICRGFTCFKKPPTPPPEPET
Sequence of HPV18 E1 helicase (helicase domain only) (P06789 458-608 limits assumed): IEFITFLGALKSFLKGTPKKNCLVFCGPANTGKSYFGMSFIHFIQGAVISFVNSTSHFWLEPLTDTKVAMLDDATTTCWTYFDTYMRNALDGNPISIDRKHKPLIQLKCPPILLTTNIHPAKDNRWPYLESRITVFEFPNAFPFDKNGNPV
Sequence of HPV31 E1 helicase (full-length) (P17382 whole entry): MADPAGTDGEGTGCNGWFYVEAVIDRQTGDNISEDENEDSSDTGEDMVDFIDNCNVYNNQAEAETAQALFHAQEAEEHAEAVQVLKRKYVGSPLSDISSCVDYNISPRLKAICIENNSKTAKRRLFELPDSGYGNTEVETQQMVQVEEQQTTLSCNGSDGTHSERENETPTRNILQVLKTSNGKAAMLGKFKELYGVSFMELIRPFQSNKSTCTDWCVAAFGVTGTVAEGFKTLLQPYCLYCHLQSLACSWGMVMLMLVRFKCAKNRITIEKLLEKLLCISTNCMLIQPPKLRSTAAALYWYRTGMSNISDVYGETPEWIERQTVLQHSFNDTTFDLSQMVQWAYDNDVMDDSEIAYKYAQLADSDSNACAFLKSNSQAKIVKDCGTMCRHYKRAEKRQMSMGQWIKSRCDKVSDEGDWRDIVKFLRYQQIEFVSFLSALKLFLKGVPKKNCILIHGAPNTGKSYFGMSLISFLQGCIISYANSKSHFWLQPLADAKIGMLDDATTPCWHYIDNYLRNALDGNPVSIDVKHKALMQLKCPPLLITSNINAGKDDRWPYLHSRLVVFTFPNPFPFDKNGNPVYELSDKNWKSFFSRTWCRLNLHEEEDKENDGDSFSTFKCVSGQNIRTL
Sequence of HPV16 E1 helicase (Human papillomavirus type 16, UniProt P03114) (P03114 whole entry): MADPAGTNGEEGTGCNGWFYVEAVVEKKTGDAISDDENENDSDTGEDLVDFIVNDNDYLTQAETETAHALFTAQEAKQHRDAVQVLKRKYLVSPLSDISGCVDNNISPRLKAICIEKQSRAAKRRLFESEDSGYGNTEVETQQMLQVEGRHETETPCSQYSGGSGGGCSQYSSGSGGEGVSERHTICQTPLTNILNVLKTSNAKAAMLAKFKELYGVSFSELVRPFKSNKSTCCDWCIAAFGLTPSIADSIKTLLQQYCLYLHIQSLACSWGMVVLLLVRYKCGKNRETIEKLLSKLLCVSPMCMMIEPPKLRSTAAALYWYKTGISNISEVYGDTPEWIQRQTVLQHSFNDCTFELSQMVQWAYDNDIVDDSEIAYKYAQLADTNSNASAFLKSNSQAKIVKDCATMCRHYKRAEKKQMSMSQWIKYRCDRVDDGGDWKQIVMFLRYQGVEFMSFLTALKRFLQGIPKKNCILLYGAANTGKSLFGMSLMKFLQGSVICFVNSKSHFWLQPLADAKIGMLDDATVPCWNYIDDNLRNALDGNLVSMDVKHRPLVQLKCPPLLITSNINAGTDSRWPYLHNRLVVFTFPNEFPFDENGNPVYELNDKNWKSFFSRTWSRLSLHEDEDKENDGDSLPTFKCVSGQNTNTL

Compound	CMG activity inhibited (human CMG helicase [1]) [%]	inhibition of CMG helicase in fluorescent-polarization assay (human CMG helicase [1])	inhibition of the human CMG in biochemical assays (primary and secondary) (human CMG (hCMG))	inhibition of CMG activity in fork unwinding assay (human CMG helicase [2])	inhibition of E1 helicase from HPV16 (HPV16 E1 helicase [3])	inhibition of SV40 Tag helicase in fork unwinding assay [5]	inhibition of OS tumor cells versus non-tumor cells (Hacat) (OS tumor cells)	inhibition of human CMG helicase in fork unwinding assay (human CMG helicase [2])	also measured
O=C(O)c1cn(C2CC2)c2cc(N3CCNCC3)c(F)cc2c1=O [ciprofloxacin]	–	–	–	–	–	–	–	–	cell growth of HeLa cells (HeLa cells): stopped cell growth
CO[C@@H]1[C@@H](OC(=O)c2ccc(C)[nH]2)[C@@H](O)[C@H](Oc2ccc3c(O)c(NC(=O)c4ccc(O)c(CC=C(C)C)c4)c(=O)oc3c2Cl)OC1(C)C [clorobiocin]	81.5	inhibiting CMG helicase	very effectively inhibit the human CMG helicase in vitro; also recorded: effectively inhibit the human CMG	inhibit CMG activity	–	–	–	–	inhibition of human CMG (hCMG), dose dependence (human CMG (hCMG); FIG. 24): inhibits human CMG (hCMG) in a dose-dependent manner; inhibition of human CMG (hCMG) (human CMG (hCMG); direct comparison to novobiocin (500 uM), FIG. 25): inhibits human CMG (hCMG)
CO[C@@H]1[C@@H](OC(=O)c2ccc(C)[nH]2)[C@@H](O)[C@H](Oc2ccc3c(O)c(NC(=O)c4c[nH]c(C(=O)Nc5c(O)c6ccc(O[C@@H]7OC(C)(C)[C@H](OC)[C@@H](OC(=O)c8ccc(C)[nH]8)[C@H]7O)c(C)c6oc5=O)c4C)c(=O)oc3c2C)OC1(C)C [coumermycin-A1, coumermycin A1]	91.7	inhibiting CMG helicase	effective CMGi	inhibit CMG activity	can be directly inhibited	capable of being inhibited; also recorded: inhibiting SV40 Tag helicase	inhibits OS tumor cells with more specificity than non-tumor cells (Hacat)	capable of being inhibited	inhibition of HPV16 E1 helicase (HPV16 E1 helicase [3]; helicase domain only): is inhibited; inhibition of HPV16 E1 helicase (HPV16 E1 helicase [4]): is inhibited; inhibition of HPV18 E1 helicase [6]: is inhibited; OS tumor growth in mice (OS tumor; 12 day analysis): suppresses OS tumor growth in mice; OS tumor growth in mice (OS tumor; 18 day analysis): suppresses OS tumor growth in mice; toxicity [7]: some toxicity; RPA loading onto DNA/chromatin (RPA32 in chromatin-bound fraction) ([7]; listed as Coumermycin A1): inhibits RPA loading onto DNA/chromatin; RPA loading onto DNA/chromatin (RPA32 in chromatin-bound fraction) ([7]; listed as coumermycin A1): inhibiting RPA loading onto DNA/chromatin; inhibition of MCM assembly and activity [8]: inhibits MCM assembly and activity; inhibition of HPV31 E1 helicase [9]: is inhibited; DNA damage leading to Parp cleavage [10]: causes DNA damage specifically in tumor cells; sensitivity of multiple tumor types to CMG helicase inhibition (multiple tumor types): sensitive to low doses; sensitivity of Hacat non-tumor cells to CMG helicase inhibition [11]: far less sensitive
CO[C@@H]1[C@@H](OC(N)=O)[C@@H](O)[C@H](Oc2ccc3c(O)c(NC(=O)c4ccc(O)c(CC=C(C)C)c4)c(=O)oc3c2C)OC1(C)C [novobiocin]	12.5	does not	not to inhibit the human CMG at any level of exposure	–	can be directly inhibited	not	does not inhibit any cells	not	RPA loading onto DNA/chromatin (RPA32 in chromatin-bound fraction) [7]: does not inhibit RPA at all
